In patent US9340577B2, “HLA binding motifs and peptides and their uses” (priority 1992, dated 2016) one finds IC50 data, which are given here for 13 compounds.

No end group written: not given here.

Holding throughout (assay): biochemical
The target of one experiment is DR1 (DRB1*0101) (Homo sapiens, UniProt P01903+P01911, A100R/D57E/F55L/F60I/F76Y/I96L/L162R/M171V/P40L/Q125E/R42F/V115G/Y59C). The experiment is classed as binding.
The target of a further experiment is DR4w4 (DRB1*0401) (Homo sapiens, UniProt P01903+P01911, A100K/A169T/F76Y/I96L/K127E/L162R/M171V/N62H/P40V/Q125Y/R42H/S133A/S149N/S66Y/V115G/V209L/W38E). It counts as binding.
The next experiment deals with DR7 (DRB1*0701) (Homo sapiens, UniProt P01903+P01911, A100R/A102G/A103Q/D57E/D86V/E43K/F76Y/K127E/L162R/M171V/P40G/Q125H/Q99D/R33Q/R42Y/R54Q/S133A/S66F/T210M/V115G/Y107V/Y59L/Y89S). It counts as binding.
Another experiment addresses DRB1*0301 (Homo sapiens, UniProt P01903+P01911, A100K/A102G/A103R/A169T/F55Y/I96L/K41T/L162R/M171V/P40S/Q125H/Q178H/Q39Y/R42S/S66N/T106N/T262R/W38E/Y61H). The experiment is classed as binding.
In a further experiment the target is DRB1*0405 (Homo sapiens, UniProt P01903+P01911, A100R/A169T/D86S/F76Y/I96L/K127E/L162R/M171V/N62H/P40V/Q125Y/R42H/S133A/S149N/S66Y/V115G/V209L/W38E). It counts as binding.
For a further experiment, the target named is DRB1*1201 (Homo sapiens, UniProt P01903+P01911, A100R/A169T/D57E/D86V/F55L/H45Y/K41T/L162R/M171V/P40S/Q125H/Q178H/Q39Y/Q99D/R42G/S66L/T262R/V114A/V67L/W38E/Y59H/Y61H/Y89S). The experiment is classed as binding.
Another experiment deals with DRB1*1302 (Homo sapiens, UniProt P01903+P01911, A100E/A169T/K41T/L162R/M171V/P40S/Q125H/Q178H/Q39Y/Q99D/R42S/S66N/T262R/V115G/W38E/Y61H). The experiment is classed as binding.
Sequence of DRB1*1302 (P01903 26-254 limits assumed, other chains not shown): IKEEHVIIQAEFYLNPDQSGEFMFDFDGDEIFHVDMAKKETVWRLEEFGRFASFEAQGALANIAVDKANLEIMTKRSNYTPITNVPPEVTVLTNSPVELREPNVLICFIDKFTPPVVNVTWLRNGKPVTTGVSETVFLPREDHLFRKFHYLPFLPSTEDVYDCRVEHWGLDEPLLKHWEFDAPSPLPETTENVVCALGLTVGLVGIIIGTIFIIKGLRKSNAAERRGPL
The target of another experiment is DRB1*1501 (Homo sapiens, UniProt P01903+P01911). It counts as binding.
The target in a further experiment is DRB4*0101 (Homo sapiens, UniProt P01903+P13762, G164S). The experiment is classed as binding.
Another experiment concerns the target DRB5*0101 (Homo sapiens, UniProt P01903+Q30154). The following applies: Binding affinity DRB5 *0101.
The target of another experiment is DRB1*0802 (Homo sapiens, UniProt P01903+P01911, A100R/A103L/A169T/F76Y/H45Y/I96F/K41T/L162R/M171V/P40S/Q125H/Q178H/Q39Y/Q99D/R218S/R42G/S66Y/V115G/W38E). It counts as binding.
For a further experiment, the target named is DRB1*1101 (Homo sapiens, UniProt P01903+P01911, A100R/A169T/A87E/I96F/K41T/L162R/M171V/P40S/Q125H/Q178H/Q39Y/Q99D/R42S/S66Y/T262R/V115G/W38E). As to conditions: Binding affinity DRB1 *1101.
Sequence of DRB1*1101 (P01903 26-254 limits assumed, other chains not shown): as above
In a further experiment the target is DRB1*0901 (Homo sapiens, UniProt P01903+P01911, A100R/A103E/D57H/D86V/F55Y/F60I/F76Y/I96F/K127E/L162R/M171V/P40D/Q125H/Q99R/R33Q/R42F/S133A/S66N/T210M/V115G/W38K/Y107V/Y59G/Y89S). It counts as binding.

A word on the IC50: it is the concentration at which inhibition is half-maximal.

Sequence of DRB1*0301 (P01903 26-254 limits assumed, other chains not shown): as above

In the case of `CC[C@H](C)[C@H](N)C(=O)N[C@@H](CCC(=O)O)C(=O)N[C@@H](Cc1ccccc1)C(=O)N[C@H](C(=O)N[C@H](C(=O)N[C@@H](Cc1ccccc1)C(=O)N[C@@H](CC(C)C)C(=O)NCC(=O)N[C@@H](C)C(=O)N[C@@H](CC(C)C)C(=O)N[C@@H](CCCCN)C(=O)N[C@@H](CO)C(=O)N[C@@H](Cc1ccccc1)C(=O)N[C@@H](CC(C)C)C(=O)N[C@@H](CCCCN)C(=O)O)[C@@H](C)O)[C@@H](C)CC` [Peptide 89.0033], the IC50 was found to be 8.6 nM against DR1 (DRB1*0101); 74 nM at DR4w4 (DRB1*0401); 410 nM on DR7 (DRB1*0701); 2300 nM against DRB1*0301; 1640 nM against DRB1*0405; 410 nM against DRB1*1201. Also, the IC50 against DRB1*1302 was above 20000 nM; against DRB1*1501, 77 nM; at DRB4*0101 it was 44 nM; on DRB5*0101, 34 nM.

Regarding DHDITDDSDIAYKYA [Peptide 90.0117], the IC50 against DR1 (DRB1*0101) is above 20000 nM; at DR4w4 (DRB1*0401), 510 nM; at DR7 (DRB1*0701) it was above 20000 nM; against DRB1*0301, 100 nM; against DRB1*0405, 2210 nM; at DRB1*0802 it was above 20000 nM. Moreover, the IC50 against DRB1*1201 was above 20000 nM; against DRB1*1302 it was 535 nM; on DRB1*1501, above 20000 nM; against DRB4*0101, 577 nM; at DRB1*1101, above 20000 nM; at DRB5*0101 it was 6830 nM.

On to DNDVMDDSEIAYKYA [Peptide 90.0069], for which the IC50 against DR1 (DRB1*0101) is above 20000 nM; at DR4w4 (DRB1*0401), 3680 nM; at DRB1*0301, 53 nM; on DRB1*0405, 10100 nM; against DRB1*0802, above 20000 nM; on DRB1*0901, above 20000 nM. Moreover, the concentration for half-maximal inhibition (IC50) was 12700 nM against DRB1*1201; above 20000 nM on DRB1*1302; 8220 nM against DRB1*1501; above 20000 nM against DRB4*0101; above 20000 nM on DRB1*1101; above 20000 nM at DRB5*0101.

Take ENSIQADTEAARALF [Peptide 90.0078]: the IC50 at DR1 (DRB1*0101) was 3900 nM; against DR4w4 (DRB1*0401), above 20000 nM; against DRB1*0301, 620 nM; against DRB1*0405 it was above 20000 nM; at DRB1*0802, above 20000 nM; on DRB1*0901, above 20000 nM. Further, the IC50 against DRB1*1201 is 7440 nM; at DRB1*1302 it was above 20000 nM; against DRB1*1501 it was above 20000 nM; on DRB4*0101, above 20000 nM; at DRB1*1101 it was above 20000 nM; on DRB5*0101, above 20000 nM.

IHFLQGAIISFVNSN [Peptide 89.0089]: the IC50 was 4.2 nM against DR1 (DRB1*0101); 499 nM on DR4w4 (DRB1*0401); 1020 nM on DR7 (DRB1*0701); above 20000 nM on DRB1*0301; 2610 nM at DRB1*0405; 1900 nM on DRB1*0802. For the same compound, the IC50 against DRB1*1201 is 71 nM; against DRB1*1302, 442 nM; on DRB1*1501, 54 nM; on DRB4*0101, 272 nM; at DRB5*0101, above 20000 nM.

Consider KVAMLDDATHTCWTY [Peptide 90.0105], for which the IC50 on DR1 (DRB1*0101) is 253 nM; against DR4w4 (DRB1*0401), 34 nM; against DRB1*0301, 410 nM; at DRB1*0405, 279 nM; against DRB1*0802, 8180 nM; against DRB1*0901 it was above 20000 nM. Besides, the IC50 against DRB1*1201 is 9280 nM; at DRB1*1302, above 20000 nM; on DRB1*1501 it was 2230 nM; on DRB4*0101, 21 nM; on DRB1*1101, 2260 nM; on DRB5*0101, above 20000 nM.

For LKAICIENNSKTAKR [Peptide 90.0064], the IC50 on DR1 (DRB1*0101) is 62 nM; against DR4w4 (DRB1*0401) it was 36 nM; against DR7 (DRB1*0701) it was 6350 nM; at DRB1*0301 it was 86 nM; against DRB1*0405, 369 nM; on DRB1*0901, above 20000 nM. The IC50 against DRB1*1201 amounted to 4580 nM; at DRB1*1302 it was 144 nM; against DRB1*1501 it was 359 nM; against DRB4*0101, 85 nM.

LKVLIKQHSLYTHLQ [Peptide 89.0061]: the IC50 on DR1 (DRB1*0101) was determined as 4.3 nM; against DR4w4 (DRB1*0401) it was 17 nM; on DR7 (DRB1*0701), 451 nM; at DRB1*0301, 1830 nM; against DRB1*0405 it was 687 nM; on DRB1*0802, 57 nM. Also, the IC50 turned out to be 33 nM against DRB1*1201; 30 nM at DRB1*1302; 18 nM on DRB1*1501; 11 nM on DRB4*0101; 43 nM at DRB1*1101.

Turning to SNLLSIPETCMVIEP [Peptide 89.0067], the IC50 on DR1 (DRB1*0101) is 347 nM; against DR4w4 (DRB1*0401) it was 320 nM; at DRB1*0301 it was above 20000 nM; on DRB1*0405, 18 nM; against DRB1*0802, 16800 nM; against DRB1*0901, 1310 nM. For the same compound, the IC50 was 3860 nM against DRB1*1201; 350 nM at DRB1*1302; 510 nM against DRB1*1501; 963 nM against DRB4*0101; 12800 nM at DRB1*1101; above 20000 nM on DRB5*0101.

Regarding VEFMSFLTALKRFLQ [Peptide 89.0015], the IC50 on DR1 (DRB1*0101) is 19 nM; on DR4w4 (DRB1*0401) it was 72 nM; at DR7 (DRB1*0701) it was 109 nM; on DRB1*0301, 347 nM; against DRB1*0405 it was 453 nM; at DRB1*0802, 102 nM. For the same compound, the IC50 on DRB1*1201 was 91 nM; against DRB1*1302 it was 9820 nM; on DRB1*1501 it was 1840 nM; against DRB4*0101, 42 nM; at DRB1*1101 it was 44 nM; at DRB5*0101 it was 19 nM.

Turning to VTAIFGVNPTIAEGF [Peptide 89.0023], the IC50 is 1140 nM against DR1 (DRB1*0101); 836 nM against DR4w4 (DRB1*0401); 3420 nM against DRB1*0301; 100 nM against DRB1*0405; above 20000 nM against DRB1*0802; 2910 nM at DRB1*0901. The IC50 on DRB1*1201 was 6580 nM; against DRB1*1302, 193 nM; against DRB1*1501, 5700 nM; against DRB4*0101, 544 nM; at DRB1*1101, above 20000 nM; on DRB5*0101, above 20000 nM.

YFKYFKEDAAKYSKT [Peptide 90.0205]: the IC50 was 70 nM against DR4w4 (DRB1*0401); 3630 nM on DR7 (DRB1*0701); 483 nM at DRB1*0301; above 20000 nM against DRB1*0405; 6030 nM on DRB1*0802; 8050 nM against DRB1*1201. The IC50 was above 20000 nM on DRB1*1302; 3910 nM at DRB1*1501; above 20000 nM against DRB4*0101; 1890 nM on DRB1*1101; 4660 nM at DRB5*0101.

Consider YFKYFKEDAKKYSKT [Peptide 90.0253], for which the IC50 against DR1 (DRB1*0101) was 4010 nM; against DR4w4 (DRB1*0401), 3620 nM; on DR7 (DRB1*0701), above 20000 nM; against DRB1*0301 it was 108 nM; at DRB1*0405, above 20000 nM; at DRB1*0901, above 20000 nM. In addition, the IC50 against DRB1*1201 was above 20000 nM; at DRB1*1302 it was above 20000 nM; at DRB1*1501, above 20000 nM; at DRB4*0101, above 20000 nM; at DRB5*0101, 289 nM.
